In US20230407304A1, “USE OF MICRORNA INHIBITION TO PREVENT AND TREAT OSTEOARTHRITIS AND OTHER INFLAMMATORY DISEASES” (VIRGINIA COMMONWEALTH UNIVERSITY, priority 2020, published 2023):

How the values were obtained:
chondrocytes = conditions: in vitro studies (Scott; Tang et al.); cited from earlier work
[1] = test system: rat articular chondrocytes (rArCs); test: miR mimic or inhibitor transfection of rArCs with or without TNF-α stimulation; type: cell-based
Procedure: FIGS. 7A-7F show assessment of miR-122 and miR-451 transfection or inhibition on TNF-α stimulated rat articular chondrocytes. rArCs were transfected at 60% confluence with miR-122, miR-451, miR-122-inhibitor (122-Inh), miR-451 inhibitor (451-Inh), or an empty vehicle (Lipo) for 24 hours followed by 24 hours with or without 10 ng/mL TNF-α stimulation. (FIG. 7A, 7D) Total DNA was measured from the cell monolayer and (FIG. 7B, 7E) MMP-13 and (FIG. 7C, 7F) PGE2 proteins were measured from the conditioned media. Groups not sharing a letter (A, B or C over bar) are statistically significant using an alpha=0.05.
Rat articular chondrocytes (rArCs) were isolated using a previously established protocol (see Scott, supra). Briefly, rArCs were isolated from femoral condyles and tibial plateaus from 100-125 g male Sprague Dawley rats. Cartilage was sterilely sliced from the articular surfaces using a surgical blade and placed in Dulbecco's modification of Eagle's medium with 1 g/L glucose, 50 U/mL penicillin and streptomycin (pen-strep) (DMEM). After removing DMEM, cartilage was incubated with 0.05% trypsin (20 mins, 37° C.), rinsed with DMEM (50 U/mL pen-strep, 20 mins, 37° C.), and then digested with sterile-filtered 0.03% collagenase type II solution (Worthington Biochemical, Lakewood, NJ) in Hank's balanced salt solution (16 hrs, 37° C.). Digestion was quenched with an equal volume of DMEM containing 10% fetal bovine serum (FBS) and 50 U/mL pen-strep, strained through a 40 μm strainer (Greiner Bio-one, North Carolina), spun down at 500×g for 10 mins and plated at a seeding density of 15,000 cells/cm^2. These cells are at passage 0. All experiments used cells at passage 1.
rArCs were plated at a seeding density of 15,000 cells/cm^2 and fed with DMEM supplemented with 10% FBS and 50 U/mL pen-strep. Media were changed 24 hours after plating and then every 48 hours. After treatments described below, conditioned media were collected, centrifuged at 1,000×g for 10 mins to remove cellular debris, aliquoted, and stored at −80° C. until assayed. Cell monolayers were rinsed twice with 1 mL of 1×PBS, lysed in 500 μL of 0.05% Triton X-100, and frozen for later DNA analysis. MMP-13 (ANASpec, Fremont, CA) and PGE2 (R&D Systems) were measured in the conditioned media by a microplate reader at ex/em 490 nm/520 nm, and 450 nm absorbance, respectively, in accordance with the manufacturer's directions. Data were normalized to the DNA content of the cell monolayer. Cell layers were thawed, and mechanically lysed by ultrasonication (40V, 10s/well) (VCX-120; Vibra-cell, Newtown, CT) and DNA was measured using QuantiFluor dsDNE system kit (Promega, Madson, WI) and quantified on a fluorescence plate reader at ex/em 504 nm/531 nm. […]

articular chondrocytes = test: miR-122 / miR-451 transfection of articular chondrocytes in presence and absence of IL-1β; type: cell-based, rat; conditions: miR transfection plus IL-1β stimulation
Excerpt: The following Examples with these microRNAs established their functions in articular chondrocytes in the presence and absence of the inflammatory cytokine IL-1β. Since IL-1β signaling is a major contributor of OA, a well-established model of creating an osteoarthritic phenotype in vitro is to stimulate cell cultures with this cytokine. This study first established that both these microRNAs were elevated in OA in the bilateral ACLT model.
The miR-451 miR (SEQ ID NO:10) was originally chosen as a control miR but it had surprising and very specific functions. […] A series of transfections and inhibition experiments with these microRNAs confirmed that these changes were due to the microRNAs themselves.

[2] = test system: resting zone and growth zone chondrocytes; test: microRNA transfection of costochondral resting zone and growth zone chondrocytes; conditions: preliminary testing

miR-451: mirVana miRNA mimic rno-miR-451-5p; AAACCGUUACCAUUACUGAGUU (AAACCGUUACCAUUACUGAGUU; listed as RNA, chemistry not given here)
apoptosis and cell viability in chondrocytes (chondrocytes): does not induce apoptosis or compromise cell viability | change of total DNA on TNF-α treatment in transfected cells ([1]; 14.5 nM mimic 24 hours, then 10 ng/mL TNF-α 24 hours): did not change total DNA | total DNA after mimic transfection ([1]; 14.5 nM mimic, 24 hours, vs Lipo control): reduced total DNA compared to all groups | IL-1β-stimulated MMP-13 (articular chondrocytes): exacerbated production in MMP-13 and PGE2 | IL-1β-stimulated PGE2 (articular chondrocytes): exacerbated production in MMP-13 and PGE2 | growth factor VEGF (articular chondrocytes): decreased the growth factor VEGF | inflammatory mediators, cytokines, chemokines (IL-1α, IL-2, IL-4, IL-6, GM-CSF, MIP-1A; RANTES for miR-122) (articular chondrocytes): increased the inflammatory mediators, cytokines, chemokines | proliferation ([2]; transfected costochondral resting zone and growth zone chondrocytes): decrease in total DNA and proliferation | total DNA ([2]; transfected growth plate chondrocytes): decrease in total DNA and proliferation
